The record followed here is paper PMC8955712, “Rapid Mining of Novel α-Glucosidase and Lipase Inhibitors from Streptomyces sp. HO1518 Using UPLC-QTOF-MS/MS” (Marine Drugs, 2022).

Like-named read-outs stand apart in the source and are kept apart here.

Assay type in all cases: biochemical
The target in one experiment is sucrase. In words: Sucrase inhibition assay. Conditions: mean ± SD; acarbose positive control; read-out: IC50 Values Against Sucrase. The text has this: The HPLC-grade methanol and acetonitrile were purchased from CINC High Purity Solvents (Shanghai) Co., Ltd. (Shanghai, China). The other solvents were of analytical grade (Sinopharm Chemical Reagent Co., Ltd., Beijing, China). Porcine pancreatic α-amylase (PPA) and PL were purchased from Sigma Aldrich Co. (St Louis, MO, USA). Sucrase and acarbose were obtained from Shanghai yuanye Bio-Technology Co., Ltd. (Shanghai, China). Orlistat was bought from Shanghai xushuo Bio-Technology Co., Ltd. (Shanghai, China). Standards 1–9 were previously isolated from Streptomyces sp. HO1518 by our group.
The sucrase inhibition assay of compounds 9–20 was evaluated according to the previously reported method.

The target of experiment [1] is T1, Porcine pancreatic α-amylase (PPA) (Sus scrofa, UniProt P00690).
T1 construct: purchased Sigma Aldrich Co. (St Louis, MO, USA)
T1 sequence (P00690 16-511): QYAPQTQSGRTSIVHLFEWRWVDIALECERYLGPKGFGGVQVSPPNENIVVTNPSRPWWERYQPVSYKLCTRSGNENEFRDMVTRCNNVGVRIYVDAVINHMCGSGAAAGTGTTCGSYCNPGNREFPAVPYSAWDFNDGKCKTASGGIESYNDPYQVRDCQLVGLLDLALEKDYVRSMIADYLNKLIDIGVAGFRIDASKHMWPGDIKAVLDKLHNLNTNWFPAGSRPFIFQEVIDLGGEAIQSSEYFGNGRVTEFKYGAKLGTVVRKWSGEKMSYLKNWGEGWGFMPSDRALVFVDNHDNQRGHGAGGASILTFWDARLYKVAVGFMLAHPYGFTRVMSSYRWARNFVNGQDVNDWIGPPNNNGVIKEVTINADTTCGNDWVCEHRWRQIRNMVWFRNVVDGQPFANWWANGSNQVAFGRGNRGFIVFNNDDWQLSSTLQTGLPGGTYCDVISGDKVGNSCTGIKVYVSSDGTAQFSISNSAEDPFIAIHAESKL
In words: PPA inhibition assay. Conditions: read-out: IC50 Values Against PPA. The text has this: (§1) The HPLC-grade methanol and acetonitrile were purchased from CINC High Purity Solvents (Shanghai) Co., Ltd. (Shanghai, China). The other solvents were of analytical grade (Sinopharm Chemical Reagent Co., Ltd., Beijing, China). Porcine pancreatic α-amylase (PPA) and PL were purchased from Sigma Aldrich Co. (St Louis, MO, USA). […] Standards 1–9 were previously isolated from Streptomyces sp. HO1518 by our group.

For the next experiment, the target named is T2, pancreatic lipase (PL) (Sus scrofa, UniProt P00591).
T2 construct: purchased Sigma Aldrich Co. (St Louis, MO, USA)
T2 sequence (P00591 1-450): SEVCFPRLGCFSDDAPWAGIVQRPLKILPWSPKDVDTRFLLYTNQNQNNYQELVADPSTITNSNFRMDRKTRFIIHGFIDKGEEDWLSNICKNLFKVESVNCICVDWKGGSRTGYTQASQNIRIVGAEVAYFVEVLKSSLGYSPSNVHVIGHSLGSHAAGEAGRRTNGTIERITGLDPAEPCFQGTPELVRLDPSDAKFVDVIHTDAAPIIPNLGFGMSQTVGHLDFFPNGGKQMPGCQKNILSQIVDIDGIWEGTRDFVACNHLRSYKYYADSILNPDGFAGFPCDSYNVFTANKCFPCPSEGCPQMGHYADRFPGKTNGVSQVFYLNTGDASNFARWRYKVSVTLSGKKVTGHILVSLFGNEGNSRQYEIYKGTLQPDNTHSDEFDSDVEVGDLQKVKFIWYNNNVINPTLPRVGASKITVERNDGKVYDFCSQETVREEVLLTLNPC
In words: PL (lipase) inhibition assay. The note with it: read-out: IC50 Values Against PL.
Description: as §1

The IC50 is the midpoint of a concentration-inhibition curve. Consider `C[C@H]1O[C@H](O[C@H]2[C@H](O)[C@@H](O)[C@@H](O[C@H]3[C@H](O)[C@@H](O)[C@@H](O[C@H]4[C@H](O)[C@@H](O)[C@@H](O[C@H]5[C@H](O)[C@@H](O)C(O)O[C@@H]5CO)O[C@@H]4CO)O[C@@H]3CO)O[C@@H]2CO)[C@H](O)[C@@H](O)[C@@H]1N[C@H]1C=C(CO)[C@@H](O)[C@H](O)[C@H]1O` (stereo partly drawn) [Compound 17, acarviostatin I03], for which the IC50 on sucrase was 11.1 ± 0.24 µM; in experiment [1], 0.296 ± 0.007 µM; on pancreatic lipase (PL), 31.6 ± 4.13 µM.
For `CCC(=O)OC[C@H]1O[C@H](O[C@H]2[C@H](O)[C@@H](O)[C@@H](O[C@H]3[C@H](O)[C@@H](O)C(O)O[C@@H]3CO)O[C@@H]2CO)[C@H](O)[C@@H](O)[C@@H]1O[C@H]1O[C@H](C)[C@@H](N[C@H]2C=C(CO)[C@@H](O[C@H]3O[C@H](CO)[C@@H](O[C@H]4O[C@H](C)[C@@H](N[C@H]5C=C(CO)[C@@H](O)[C@H](O)[C@H]5O)[C@H](O)[C@H]4O)[C@H](O)[C@H]3O)[C@H](O)[C@H]2O)[C@H](O)[C@H]1O` (stereo partly drawn) [Compound 11, D6-O-Propionyl-acarviostatin II02], the IC50 at sucrase amounted to 4.34 ± 0.24 µM; in experiment [1], 0.079 ± 0.001 µM; on pancreatic lipase (PL), 7.22 ± 0.1 µM.
On the same counts, the results for `CC(C)CC(=O)OC[C@H]1O[C@H](O[C@H]2[C@H](O)[C@@H](O)[C@@H](O[C@H]3[C@H](O)[C@@H](O)C(O)O[C@@H]3CO)O[C@@H]2CO)[C@H](O)[C@@H](O)[C@@H]1O[C@H]1O[C@H](C)[C@@H](N[C@H]2C=C(CO)[C@@H](O[C@H]3O[C@H](CO)[C@@H](O[C@H]4O[C@H](C)[C@@H](N[C@H]5C=C(CO)[C@@H](O)[C@H](O)[C@H]5O)[C@H](O)[C@H]4O)[C@H](O)[C@H]3O)[C@H](O)[C@H]2O)[C@H](O)[C@H]1O` (stereo partly drawn) [Compound 13, D6-O-Isovaleryl-acarviostatin II02] are 7.06 ± 0.09 µM, 0.092 ± 0.001 µM and 1.56 ± 0.04 µM.
On the same counts, the results for `CC(C)C(=O)OC[C@H]1O[C@H](O[C@H]2[C@H](O)[C@@H](O)[C@@H](O[C@H]3[C@H](O)[C@@H](O)C(O)O[C@@H]3CO)O[C@@H]2CO)[C@H](O)[C@@H](O)[C@@H]1O[C@H]1O[C@H](C)[C@@H](N[C@H]2C=C(CO)[C@@H](O[C@H]3O[C@H](CO)[C@@H](O[C@H]4O[C@H](C)[C@@H](N[C@H]5C=C(CO)[C@@H](O)[C@H](O)[C@H]5O)[C@H](O)[C@H]4O)[C@H](O)[C@H]3O)[C@H](O)[C@H]2O)[C@H](O)[C@H]1O` (stereo partly drawn) [Compound 12, D6-O-Isobutyryl-acarviostatin II02] are 6.79 ± 0.06 µM, 0.085 ± 0.006 µM and 5.48 ± 0.18 µM.
The matching figures for `C[C@H]1O[C@H](O[C@H]2[C@H](O)[C@@H](O)[C@@H](O[C@H]3[C@H](O)[C@@H](O)[C@@H](O[C@H]4[C@H](O)[C@@H](O)C(O)O[C@@H]4CO)O[C@@H]3CO)O[C@@H]2CO)[C@H](O)[C@@H](O)[C@@H]1N[C@H]1C=C(CO)[C@@H](O[C@H]2O[C@H](CO)[C@@H](O[C@H]3O[C@H](C)[C@@H](N[C@H]4C=C(CO)[C@@H](O)[C@H](O)[C@H]4O)[C@H](O)[C@H]3O)[C@H](O)[C@H]2O)[C@H](O)[C@H]1O` (stereo partly drawn) [Compound 10, Acarviostatin II02]: 13.1 ± 0.55 µM, 0.084 ± 0.001 µM and 12.7 ± 0.76 µM.
In the case of `CCCC(=O)OC[C@H]1O[C@H](O[C@H]2[C@H](O)[C@@H](O)[C@@H](O[C@H]3[C@H](O)[C@@H](O)[C@@H](O[C@H]4[C@H](O)[C@@H](O)C(O)O[C@@H]4CO)O[C@@H]3CO)O[C@@H]2CO)[C@H](O)[C@@H](O)[C@@H]1O[C@H]1O[C@H](C)[C@@H](N[C@H]2C=C(CO)[C@@H](O)[C@H](O)[C@H]2O)[C@H](O)[C@H]1O` (stereo partly drawn) [Compound 18, Bu-Aca I03], the results for the IC50 (on sucrase; in experiment [1]; at pancreatic lipase (PL)) were 3.8 ± 0.78 µM, 0.402 ± 0.008 µM and 11.7 ± 2.52 µM, respectively.
In the case of `CCCC(=O)OC[C@H]1O[C@H](O[C@H]2[C@H](O)[C@@H](O)[C@@H](O[C@H]3[C@H](O)[C@@H](O)[C@@H](O[C@H]4[C@H](O)[C@@H](O)C(O)O[C@@H]4CO)O[C@@H]3CO)O[C@@H]2CO)[C@H](O)[C@@H](O)[C@@H]1O[C@H]1O[C@H](C)[C@@H](N[C@H]2C=C(CO)[C@@H](O[C@H]3O[C@H](CO)[C@@H](O[C@H]4O[C@H](C)[C@@H](N[C@H]5C=C(CO)[C@@H](O)[C@H](O)[C@H]5O)[C@H](O)[C@H]4O)[C@H](O)[C@H]3O)[C@H](O)[C@H]2O)[C@H](O)[C@H]1O` (stereo partly drawn) [Compound 15, D6-O-Butyryl-acarviostatin II03], the IC50 at sucrase was 10.7 ± 2.6 µM; in experiment [1] (mean ± SD, acarbose positive control), 0.059 ± 0.007 µM; on pancreatic lipase (PL) (mean ± SD, orlistat positive control) it was 4.46 ± 0.14 µM.
